# Patent US20150352131A1, “Compositions and Methods for the Prevention and Treatment of Osteolysis and Osteoporosis” (RHODE ISLAND HOSPITAL, priority 2013, published 2015)
# Entries after “also recorded” stand apart in the source; their conditions may differ. Read-outs that look alike come from different tables or passages of the source.
# What was measured:
# [1] = orthopedic implant; cited from earlier work
# [2] = test system: BM-derived pre-osteoclast cultures (wild type bone marrow cells); test: TRAP staining of multinucleated osteoclasts in ex vivo osteoclast culture; type: cell-based, mice; conditions: FIG. 5: NSC-87877 50 nM, Aldronates 25 nM, or combination
# Procedure: Whole bone marrow (BM) was flushed from the explanted femurs and tibiae of euthanized mice with DMEM (Invitrogen, N.Y), and centrifuged at 1,500 rpm for 5 minutes. The pelletized cells were resuspended in red blood cell (RBC) lysis buffer, re-centrifuged at 1,500 rpm for 5 minutes, and then cultured in macrophage medium (DMEM supplemented with 10% FBS, 1% penicillin/streptomycin, and 10 ng/mL M-CSF) at 37° C. and 5% CO2 for 3 days (Tanaka S, et al. (1993) J Clin Invest 91(1):257-63) in either 100 mm tissue culture dishes, 4-well or 8-well chamber slides, or 48-well or 96-well tissue culture plates. The medium was changed every other day. To induce osteoclastogenic differentiation, BM cells cultured for 3 days in macrophage medium were further cultured for 5-7 days in osteoclast differentiation medium (DMEM supplemented with 10% FCS, 10 ng/mL M-CSF, and 100 ng/mL RANKL) (McHugh K P, et al. (2000) J Clin Invest 105(4):433-40; Zou W, et al. (2008) Mol Cell 31(3):422-31). These BM-derived osteoclasts were primarily used for the various assays in this study. […] TRAP^+ multinucleated osteoclasts (>3 nuclei) were quantified with the use of a Nikon digital microscope. Osteoclast-mediated bone resorptive activity was quantified using the pit assay (Xu D, et al. (2004) Biochemical Journal 383(Pt 2):219-225). […]
# [3] = test system: prostate cancer; conditions: delivered as loaded nanoparticles conjugated to T cells; cited from earlier work
# [4] = test system: osteoclastogenic genes c-Fos, Nfatc1, MMP9, Trap, and Ctsk in bone marrow derived macrophages (BMM); test: qRT-PCR of osteoclastogenic gene expression in BMM induced by polyethylene or titanium particles; type: cell-based, mice; conditions: BMM with PeP or TiP, NSC87877 50 uM, 5 days of culture, normalized to GAPDH
# Procedure: The average size of PeP and TiP is about […] in diameter (FIGS. 8A-B), within the range of orthopedic implant debris size; these particles can be efficiently engulfed by BMM and trigger their osteoclastogenic differentiation (FIGS. 8C-D). 5×10^5 BMM were cultured in BMM medium containing about 2×10^6 of PeP or TiP in the presence or absence of Shp2 inhibitor NSC87877 (50 uM). BMM cultured in osteoclast media (DMEM supplemented with 10% FCS, 10 ng/mL M-CSF, and 100 ng/mL RANKL) were used as a positive control. Total RNA was extracted from BMM after 5 days of culture using RNeasy mini kit (Qiagen, Valencia, Calif.). cDNA was synthesized using 1 μg total RNA with iSCRIPT™ cDNA Synthesis Kit (Bio-Rad, Hercules, Calif.) and q-PCR was performed with RT2SYBR® Green qPCR kit (Bio-Rad) on a CFX384 real-time PCR machine. Osteoclastogenic gene expressions in BMM were measured and normalized to Glyceraldehyde 3-phosphate dehydrogenase (GAPDH); their levels were then compared between NSC87877 treated and untreated groups.
# [5] = test system: osteoclasts; test: Pit assay, osteoclast-mediated bone resorption on dentin slices; type: cell-based, mice
# From the text: TRAP staining was used to identify multinucleated osteoclasts in osteoclastogenic cell cultures or tibia section. Briefly, tibia from control and Shp2 mutant mice were fixed in 4% paraformaldehyde overnight and then decalcified in EDTA solution (14%) till bone tissue was soft. The specimens were then dehydrated according standard procedures and embedded for sectioning. TRAP^+ multinucleated osteoclasts (>3 nuclei) were quantified with the use of a Nikon digital microscope. Osteoclast-mediated bone resorptive activity was quantified using the pit assay (Xu D, et al. (2004) Biochemical Journal 383(Pt 2):219-225). Ethanol-sterilized slices of bovine bone were disposed in individual wells of a 48 well/plate with 1 mL osteoclast culture medium containing 2.5×10^4 BM macrophages (BMM) per well. After 8 to 10 days, all cellular components were removed from bone slices with a brief (10 minute) treatment with 5% sodium hypochlorite. […] The effect of Shp2 inhibition on osteoclast-mediated bone resorption was also studied in order to further test whether pharmacological inhibition of Shp2 could serve as a treatment modality. BMM were cultured on dentin slices in osteoclast medium and in the presence or absence of Shp2 inhibitor NSC-87877 (50 μM) (FIGS. 10A-B).
# [6] = mice given NSC-87877, cited from earlier work
Compound,bone ongrowth and shear strength [1],number of osteoclasts (formation of TRAP+ multinucleated osteoclasts) [2],tumor burden [3],expression of osteoclastogenic marker genes [4],"osteoclast-mediated bone resorption (pits formed on dentin slices) ([5]; BMM from wild type mice in osteoclast medium, NSC-87877 50 μM, 10 days)","ability to resorb bone matrix (pits on dentin slices) ([5]; co-cultured 10 days on dentin slices, FIG. 5: NSC-87877 50 nM, Aldronates 25 nM, or combination)",toxicity in vivo (death versus control-treated or untreated mice) [6],toxicity in vivo (death versus control-treated or untreated mice) ([6]; listed as NSC 87877)
NCCCC(O)(P(=O)(O)O)P(=O)(O)O [Alendronate],increase,,,,,,,
O=S(=O)(O)c1ccc2cc(/N=N/c3cc(S(=O)(=O)O)c4cccnc4c3O)ccc2c1 [NSC87877],,inhibited,effective in reducing tumor burden,significantly inhibited,formed only a few small pits; also recorded: markedly reduced,inhibited,did not die significantly sooner,lack of toxicity
